From ChEMBL document CHEMBL1681733, “Synthesis and evaluation of [(1R)-1-amino-2-(2,5-difluorophenyl)ethyl]cyclohexanes and 4-[(1R)-1-amino-2-(2,5-difluorophenyl)ethyl]piperidines as DPP-4 inhibitors” (Bioorg Med Chem Lett, 2011)

Legend:
[1] = Clearance in rat at 1 mg/kg, iv and 2 mg/kg, po; assay type: ADME, organism-based; conditions: in vivo
Dipeptidyl peptidase 4 = Dipeptidyl peptidase 4 (Homo sapiens, UniProt P27487)
[2] = Cmax in rat at 1 mg/kg, iv and 2 mg/kg, po; assay type: ADME, organism-based; conditions: in vivo
[3] = Oral bioavailability in rat at 2 mg/kg; assay type: ADME, organism-based; conditions: in vivo
Dipeptidyl peptidase 2 = Dipeptidyl peptidase 2 (Homo sapiens, UniProt Q9UHL4); assay: Inhibition of QPP
[4] = Half life in rat at 1 mg/kg, iv and 2 mg/kg, po; assay type: ADME, organism-based; conditions: in vivo
Prolyl endopeptidase FAP = molecular target: T1, Prolyl endopeptidase FAP (Homo sapiens, UniProt Q12884); assay: Inhibition of FAP
T1 sequence (Q12884 whole entry): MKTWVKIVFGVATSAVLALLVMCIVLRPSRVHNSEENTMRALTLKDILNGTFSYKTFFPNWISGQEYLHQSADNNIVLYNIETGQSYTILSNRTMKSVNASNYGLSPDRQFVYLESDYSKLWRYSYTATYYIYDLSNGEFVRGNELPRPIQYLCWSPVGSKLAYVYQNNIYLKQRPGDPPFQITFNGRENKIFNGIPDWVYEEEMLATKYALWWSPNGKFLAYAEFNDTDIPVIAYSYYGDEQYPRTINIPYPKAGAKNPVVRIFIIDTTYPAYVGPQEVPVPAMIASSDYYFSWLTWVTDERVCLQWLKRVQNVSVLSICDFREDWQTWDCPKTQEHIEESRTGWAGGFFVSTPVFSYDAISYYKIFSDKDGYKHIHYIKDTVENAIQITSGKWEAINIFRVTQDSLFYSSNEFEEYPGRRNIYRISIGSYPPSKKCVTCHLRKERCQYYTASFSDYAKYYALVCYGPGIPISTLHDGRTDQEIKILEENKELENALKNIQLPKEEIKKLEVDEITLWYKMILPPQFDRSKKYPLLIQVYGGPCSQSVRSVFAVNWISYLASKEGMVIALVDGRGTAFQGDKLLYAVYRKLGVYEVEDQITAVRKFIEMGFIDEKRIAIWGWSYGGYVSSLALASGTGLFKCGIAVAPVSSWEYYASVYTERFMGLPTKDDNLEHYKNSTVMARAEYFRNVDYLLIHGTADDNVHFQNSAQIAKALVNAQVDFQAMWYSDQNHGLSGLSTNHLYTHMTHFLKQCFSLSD

Dipeptidyl peptidase 8 = Dipeptidyl peptidase 8 (Homo sapiens, UniProt Q6V1X1); assay: Inhibition of DPP8
Dipeptidyl peptidase 8, sequence (Q6V1X1 whole entry): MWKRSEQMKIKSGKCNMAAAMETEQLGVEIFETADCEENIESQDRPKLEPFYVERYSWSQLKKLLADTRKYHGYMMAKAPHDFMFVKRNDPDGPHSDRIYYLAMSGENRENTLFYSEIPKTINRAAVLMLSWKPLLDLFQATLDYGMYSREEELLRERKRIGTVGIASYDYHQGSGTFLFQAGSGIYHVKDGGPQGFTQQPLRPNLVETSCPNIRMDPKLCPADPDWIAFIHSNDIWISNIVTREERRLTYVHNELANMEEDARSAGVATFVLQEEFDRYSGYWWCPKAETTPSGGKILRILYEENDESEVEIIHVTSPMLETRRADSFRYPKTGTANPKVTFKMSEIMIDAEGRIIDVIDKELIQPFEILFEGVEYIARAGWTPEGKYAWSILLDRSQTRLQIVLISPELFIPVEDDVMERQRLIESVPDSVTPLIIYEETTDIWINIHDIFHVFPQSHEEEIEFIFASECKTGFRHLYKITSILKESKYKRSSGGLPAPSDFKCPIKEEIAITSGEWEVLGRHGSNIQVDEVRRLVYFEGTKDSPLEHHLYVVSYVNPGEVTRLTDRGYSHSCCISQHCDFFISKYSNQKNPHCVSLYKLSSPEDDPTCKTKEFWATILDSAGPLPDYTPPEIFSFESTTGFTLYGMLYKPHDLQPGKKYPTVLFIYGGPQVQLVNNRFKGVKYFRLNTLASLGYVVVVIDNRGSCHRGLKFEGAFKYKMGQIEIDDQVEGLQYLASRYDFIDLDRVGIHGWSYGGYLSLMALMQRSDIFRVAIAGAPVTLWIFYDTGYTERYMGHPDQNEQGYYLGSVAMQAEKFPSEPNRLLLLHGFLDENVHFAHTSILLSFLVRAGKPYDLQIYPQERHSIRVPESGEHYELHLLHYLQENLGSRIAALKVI

Dipeptidyl peptidase 9 = Dipeptidyl peptidase 9 (Homo sapiens, UniProt Q86TI2); assay: Inhibition of DPP9
Dipeptidyl peptidase 9, sequence (Q86TI2 whole entry): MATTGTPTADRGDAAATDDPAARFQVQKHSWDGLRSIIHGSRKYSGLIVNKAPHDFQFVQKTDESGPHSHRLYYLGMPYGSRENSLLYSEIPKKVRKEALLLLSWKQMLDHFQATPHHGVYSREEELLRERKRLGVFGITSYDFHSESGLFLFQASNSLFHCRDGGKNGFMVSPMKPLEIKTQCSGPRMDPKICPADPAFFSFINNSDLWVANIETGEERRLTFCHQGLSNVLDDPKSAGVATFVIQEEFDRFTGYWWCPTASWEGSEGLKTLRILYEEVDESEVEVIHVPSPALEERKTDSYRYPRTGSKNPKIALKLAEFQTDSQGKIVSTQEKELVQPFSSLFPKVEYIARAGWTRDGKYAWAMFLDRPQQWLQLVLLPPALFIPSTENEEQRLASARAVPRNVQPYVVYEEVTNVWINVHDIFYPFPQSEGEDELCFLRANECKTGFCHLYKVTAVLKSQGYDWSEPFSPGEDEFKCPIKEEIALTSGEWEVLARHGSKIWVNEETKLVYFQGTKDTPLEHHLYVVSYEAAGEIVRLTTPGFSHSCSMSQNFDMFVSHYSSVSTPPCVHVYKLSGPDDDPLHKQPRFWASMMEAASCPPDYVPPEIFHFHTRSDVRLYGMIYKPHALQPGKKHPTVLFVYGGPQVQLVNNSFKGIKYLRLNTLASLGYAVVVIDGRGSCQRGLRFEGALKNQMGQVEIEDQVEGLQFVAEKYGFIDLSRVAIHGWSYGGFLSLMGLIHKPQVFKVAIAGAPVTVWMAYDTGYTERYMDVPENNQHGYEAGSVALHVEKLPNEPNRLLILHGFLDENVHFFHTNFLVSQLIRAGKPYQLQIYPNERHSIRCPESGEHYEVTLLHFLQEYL

Dipeptidyl peptidase 4, sequence (P27487 whole entry): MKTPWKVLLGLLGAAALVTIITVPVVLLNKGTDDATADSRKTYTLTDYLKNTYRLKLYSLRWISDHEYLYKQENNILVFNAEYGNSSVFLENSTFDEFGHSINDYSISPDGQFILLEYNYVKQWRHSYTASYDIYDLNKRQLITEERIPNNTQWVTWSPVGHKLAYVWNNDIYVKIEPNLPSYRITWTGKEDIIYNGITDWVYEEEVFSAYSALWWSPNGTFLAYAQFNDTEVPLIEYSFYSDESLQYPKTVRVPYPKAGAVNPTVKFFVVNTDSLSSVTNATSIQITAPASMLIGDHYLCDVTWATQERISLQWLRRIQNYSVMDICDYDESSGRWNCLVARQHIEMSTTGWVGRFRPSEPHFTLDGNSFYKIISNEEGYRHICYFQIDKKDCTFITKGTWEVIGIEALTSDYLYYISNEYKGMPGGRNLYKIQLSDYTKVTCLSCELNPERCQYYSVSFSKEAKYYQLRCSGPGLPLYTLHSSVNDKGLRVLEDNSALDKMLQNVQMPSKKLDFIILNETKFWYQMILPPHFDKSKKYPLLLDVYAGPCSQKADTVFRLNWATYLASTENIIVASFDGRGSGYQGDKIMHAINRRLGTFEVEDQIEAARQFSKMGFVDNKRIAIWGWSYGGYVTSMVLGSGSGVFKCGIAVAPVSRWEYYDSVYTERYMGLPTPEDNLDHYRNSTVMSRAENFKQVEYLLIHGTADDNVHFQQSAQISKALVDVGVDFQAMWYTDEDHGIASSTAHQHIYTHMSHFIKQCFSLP

SMILES	clearance [1]	IC50 (Dipeptidyl peptidase 4)	Cmax [2]	bioavailability [3]	IC50 (Dipeptidyl peptidase 2)	half-life [4]	IC50 (Prolyl endopeptidase FAP)	IC50 (Dipeptidyl peptidase 8)	IC50 (Dipeptidyl peptidase 9)
CC(=O)N(C)[C@H]1CC[C@H]([C@H](N)Cc2cc(F)ccc2F)CC1	177 mL/min/kg	0.12 µM	120 nM	9.7%	83 µM	1 h	> 35 µM	–	–
NC(=O)[C@@H]1CCCN([C@H]2CC[C@H]([C@H](N)Cc3cc(F)ccc3F)CC2)C1	201 mL/min/kg	–	24 nM	24%	–	2.1 h	> 35 µM	–	–
Cc1ccc(N2CCC([C@H](N)Cc3cc(F)ccc3F)CC2)c(C)n1	154 mL/min/kg	–	69 nM	22%	–	2.8 h	> 35 µM	–	–
N[C@H](Cc1cc(F)ccc1F)C1CCN(c2cncnc2)CC1	171 mL/min/kg	–	19 nM	4.5%	–	0.92 h	> 35 µM	–	–
CN([C@H]1CC[C@H]([C@H](N)Cc2cc(F)ccc2F)CC1)S(=O)(=O)c1ccc(-c2csnn2)cc1	180 mL/min/kg	0.094 µM	190 nM	25%	8.5 µM	3.5 h	> 35 µM	> 100 µM	–
CN([C@H]1CC[C@H]([C@H](N)Cc2cc(F)ccc2F)CC1)S(=O)(=O)c1ccc(OC(F)(F)F)cc1	–	0.4 µM	–	–	29 µM	–	> 35 µM	> 100 µM	> 100 µM
Cc1noc(C)c1S(=O)(=O)N(CCCC(F)(F)F)[C@H]1CC[C@H]([C@H](N)Cc2cc(F)ccc2F)CC1	–	0.57 µM	–	–	40 µM	–	> 35 µM	> 100 µM	> 100 µM
Cc1noc(C)c1S(=O)(=O)N(C)[C@H]1CC[C@H]([C@H](N)Cc2cc(F)ccc2F)CC1	116 mL/min/kg	0.055 µM	32 nM	2.2%	63 µM	3 h	> 35 µM	> 100 µM	> 100 µM
CN([C@H]1CC[C@H]([C@H](N)Cc2cc(F)ccc2F)CC1)S(=O)(=O)c1cccc(C(N)=O)c1	204 mL/min/kg	–	19 nM	13%	–	–	> 35 µM	–	–
CCN(C(C)=O)[C@H]1CC[C@H]([C@H](N)Cc2cc(F)ccc2F)CC1	–	0.26 µM	–	–	> 100 µM	–	> 35 µM	> 100 µM	> 100 µM
Cn1cnc(S(=O)(=O)N(C)[C@H]2CC[C@H]([C@H](N)Cc3cc(F)ccc3F)CC2)c1	–	0.5 µM	–	–	> 100 µM	–	> 35 µM	> 100 µM	> 100 µM
